Test results published in the NIST ThermoML archive (doi:10.1021/je100765j).

Test: xn = mol fraction of the nth substance listed
Settings: 101 kPa, Liquid; for speed of sound: Sing-around technique in a fixed-path interferometer

CCC(C)Cl (stereo not drawn) [2-chlorobutane] + CC(C)OC(C)C
Settings | mass density [kg/m3] | speed of sound [m/s]
283.15 K, x1 = 0.0519 | 740.159 | 1068.8
283.15 K, x1 = 0.0988 | 745.897 | 1071.7
283.15 K, x1 = 0.2006 | 758.792 | 1078
283.15 K, x1 = 0.3211 | 774.756 | 1085.4
283.15 K, x1 = 0.4201 | 788.575 | 1091.5
283.15 K, x1 = 0.532 | 804.971 | 1098.5
283.15 K, x1 = 0.6244 | 819.223 | 1104.3
283.15 K, x1 = 0.726 | 835.602 | 1110.7
283.15 K, x1 = 0.8163 | 850.907 | 1116.3
283.15 K, x1 = 0.8817 | 862.411 | 1120.4
283.15 K, x1 = 0.9634 | 877.39 | 1125.5
288.15 K, x1 = 0.0519 | 734.981 | 1046.5
288.15 K, x1 = 0.0988 | 740.712 | 1049.4
288.15 K, x1 = 0.2006 | 753.569 | 1055.8
288.15 K, x1 = 0.3211 | 769.483 | 1063.4
288.15 K, x1 = 0.4201 | 783.251 | 1069.7
288.15 K, x1 = 0.532 | 799.602 | 1076.9
288.15 K, x1 = 0.6244 | 813.814 | 1082.9
288.15 K, x1 = 0.726 | 830.144 | 1089.5
288.15 K, x1 = 0.8163 | 845.414 | 1095.4
288.15 K, x1 = 0.8817 | 856.901 | 1099.6
288.15 K, x1 = 0.9634 | 871.819 | 1104.9
293.15 K, x1 = 0.0519 | 729.792 | 1024
293.15 K, x1 = 0.0988 | 735.485 | 1027.1
293.15 K, x1 = 0.2006 | 748.303 | 1033.7
293.15 K, x1 = 0.3211 | 764.161 | 1041.4
293.15 K, x1 = 0.4201 | 777.889 | 1047.9
293.15 K, x1 = 0.532 | 794.197 | 1055.3
293.15 K, x1 = 0.6244 | 808.369 | 1061.5
293.15 K, x1 = 0.726 | 824.657 | 1068.3
293.15 K, x1 = 0.8163 | 839.877 | 1074.4
293.15 K, x1 = 0.8817 | 851.332 | 1078.7
293.15 K, x1 = 0.9634 | 866.214 | 1084.3
298.15 K, x1 = 0.0519 | 724.535 | 1001.8
298.15 K, x1 = 0.0988 | 730.22 | 1004.9
298.15 K, x1 = 0.2006 | 742.995 | 1011.5
298.15 K, x1 = 0.3211 | 758.802 | 1019.4
298.15 K, x1 = 0.4201 | 772.485 | 1026.1
298.15 K, x1 = 0.532 | 788.75 | 1033.8
298.15 K, x1 = 0.6244 | 802.882 | 1040.2
298.15 K, x1 = 0.726 | 819.123 | 1047.2
298.15 K, x1 = 0.8163 | 834.307 | 1053.5
298.15 K, x1 = 0.8817 | 845.724 | 1057.9
298.15 K, x1 = 0.9634 | 860.57 | 1063.7
303.15 K, x1 = 0.0519 | 719.276 | 979.57
303.15 K, x1 = 0.0988 | 724.919 | 982.73
303.15 K, x1 = 0.2006 | 737.649 | 989.5
303.15 K, x1 = 0.3211 | 753.411 | 997.66
303.15 K, x1 = 0.4201 | 767.06 | 1004.4
303.15 K, x1 = 0.532 | 783.263 | 1012.3
303.15 K, x1 = 0.6244 | 797.355 | 1018.8
303.15 K, x1 = 0.726 | 813.555 | 1026.1
303.15 K, x1 = 0.8163 | 828.698 | 1032.6
303.15 K, x1 = 0.8817 | 840.084 | 1037.2
303.15 K, x1 = 0.9634 | 854.895 | 1043.2
308.15 K, x1 = 0.0519 | 713.939 | 957.51
308.15 K, x1 = 0.0988 | 719.569 | 960.7
308.15 K, x1 = 0.2006 | 732.261 | 967.56
308.15 K, x1 = 0.3211 | 747.973 | 975.92
308.15 K, x1 = 0.4201 | 761.571 | 982.81
308.15 K, x1 = 0.532 | 777.737 | 990.84
308.15 K, x1 = 0.6244 | 791.784 | 997.54
308.15 K, x1 = 0.726 | 807.944 | 1005
308.15 K, x1 = 0.8163 | 823.046 | 1011.6
308.15 K, x1 = 0.8817 | 834.402 | 1016.4
308.15 K, x1 = 0.9634 | 849.179 | 1022.6
313.15 K, x1 = 0.0519 | 708.573 | 935.64
313.15 K, x1 = 0.0988 | 714.181 | 938.87
313.15 K, x1 = 0.2006 | 726.833 | 945.88
313.15 K, x1 = 0.3211 | 742.484 | 954.34
313.15 K, x1 = 0.4201 | 756.049 | 961.42
313.15 K, x1 = 0.532 | 772.166 | 969.67
313.15 K, x1 = 0.6244 | 786.18 | 976.57
313.15 K, x1 = 0.726 | 802.287 | 984.26
313.15 K, x1 = 0.8163 | 817.349 | 991.15
313.15 K, x1 = 0.8817 | 828.683 | 996.09
313.15 K, x1 = 0.9634 | 843.442 | 1002.5

CC(C)CCl [1-chloro-2-methylpropane] + CC(C)OC(C)C
Settings | mass density [kg/m3] | speed of sound [m/s]
283.15 K, x1 = 0.0549 | 740.509 | 1069.1
283.15 K, x1 = 0.091 | 745.071 | 1071.7
283.15 K, x1 = 0.1977 | 758.96 | 1079.6
283.15 K, x1 = 0.2934 | 772.077 | 1087
283.15 K, x1 = 0.3911 | 785.941 | 1094.4
283.15 K, x1 = 0.5137 | 804.21 | 1103.7
283.15 K, x1 = 0.6034 | 818.258 | 1110.5
283.15 K, x1 = 0.6769 | 830.206 | 1116.2
283.15 K, x1 = 0.8059 | 852.473 | 1126.3
283.15 K, x1 = 0.9111 | 871.773 | 1134.7
283.15 K, x1 = 0.9646 | 881.981 | 1139
288.15 K, x1 = 0.0549 | 735.346 | 1046.8
288.15 K, x1 = 0.091 | 739.888 | 1049.4
288.15 K, x1 = 0.1977 | 753.737 | 1057.5
288.15 K, x1 = 0.2934 | 766.807 | 1064.8
288.15 K, x1 = 0.3911 | 780.617 | 1072.3
288.15 K, x1 = 0.5137 | 798.831 | 1081.8
288.15 K, x1 = 0.6034 | 812.821 | 1088.7
288.15 K, x1 = 0.6769 | 824.734 | 1094.5
288.15 K, x1 = 0.8059 | 846.936 | 1104.9
288.15 K, x1 = 0.9111 | 866.179 | 1113.5
288.15 K, x1 = 0.9646 | 876.368 | 1117.9
293.15 K, x1 = 0.0549 | 730.142 | 1024.4
293.15 K, x1 = 0.091 | 734.678 | 1027
293.15 K, x1 = 0.1977 | 748.467 | 1035.1
293.15 K, x1 = 0.2934 | 761.481 | 1042.6
293.15 K, x1 = 0.3911 | 775.245 | 1050.3
293.15 K, x1 = 0.5137 | 793.406 | 1059.9
293.15 K, x1 = 0.6034 | 807.35 | 1066.9
293.15 K, x1 = 0.6769 | 819.228 | 1072.8
293.15 K, x1 = 0.8059 | 841.356 | 1083.4
293.15 K, x1 = 0.9111 | 860.549 | 1092.2
293.15 K, x1 = 0.9646 | 870.717 | 1096.8
298.15 K, x1 = 0.0549 | 724.887 | 1002.1
298.15 K, x1 = 0.091 | 729.395 | 1004.7
298.15 K, x1 = 0.1977 | 743.114 | 1013
298.15 K, x1 = 0.2934 | 756.06 | 1020.5
298.15 K, x1 = 0.3911 | 769.763 | 1028.2
298.15 K, x1 = 0.5137 | 787.825 | 1038
298.15 K, x1 = 0.6034 | 801.699 | 1045.2
298.15 K, x1 = 0.6769 | 813.519 | 1051.2
298.15 K, x1 = 0.8059 | 835.53 | 1062
298.15 K, x1 = 0.9111 | 854.603 | 1071
298.15 K, x1 = 0.9646 | 864.749 | 1075.6
303.15 K, x1 = 0.0549 | 719.603 | 979.86
303.15 K, x1 = 0.091 | 724.11 | 982.53
303.15 K, x1 = 0.1977 | 737.798 | 990.87
303.15 K, x1 = 0.2934 | 750.738 | 998.49
303.15 K, x1 = 0.3911 | 764.421 | 1006.3
303.15 K, x1 = 0.5137 | 782.446 | 1016.2
303.15 K, x1 = 0.6034 | 796.305 | 1023.5
303.15 K, x1 = 0.6769 | 808.11 | 1029.7
303.15 K, x1 = 0.8059 | 830.111 | 1040.8
303.15 K, x1 = 0.9111 | 849.196 | 1050
303.15 K, x1 = 0.9646 | 859.307 | 1054.8
308.15 K, x1 = 0.0549 | 714.28 | 957.82
308.15 K, x1 = 0.091 | 718.759 | 960.52
308.15 K, x1 = 0.1977 | 732.397 | 968.88
308.15 K, x1 = 0.2934 | 745.3 | 976.54
308.15 K, x1 = 0.3911 | 758.935 | 984.48
308.15 K, x1 = 0.5137 | 776.901 | 994.58
308.15 K, x1 = 0.6034 | 790.719 | 1002
308.15 K, x1 = 0.6769 | 802.492 | 1008.2
308.15 K, x1 = 0.8059 | 824.422 | 1019.6
308.15 K, x1 = 0.9111 | 843.468 | 1029
308.15 K, x1 = 0.9646 | 853.542 | 1033.8
313.15 K, x1 = 0.0549 | 708.887 | 935.95
313.15 K, x1 = 0.091 | 713.334 | 938.67
313.15 K, x1 = 0.1977 | 726.882 | 947.16
313.15 K, x1 = 0.2934 | 739.693 | 954.94
313.15 K, x1 = 0.3911 | 753.227 | 963
313.15 K, x1 = 0.5137 | 771.077 | 973.17
313.15 K, x1 = 0.6034 | 784.802 | 980.73
313.15 K, x1 = 0.6769 | 796.487 | 987.04
313.15 K, x1 = 0.8059 | 818.264 | 998.57
313.15 K, x1 = 0.9111 | 837.168 | 1008.1
313.15 K, x1 = 0.9646 | 847.176 | 1013
